This note sets out measurements from US11207320B2, “Compositions and methods for cancer expressing PDE3A or SLFN12” (The Broad Institute, Inc., priority 2015, dated 2021).

Structures are written as SMILES.

In assay [1] the test system is A549 cells. Description: Sensitization of DNMDP-resistant cell line by expression of SLFN12 or SLFN12 and PDE3A. The assay is classed as cell-based. The note with it: A549 expressing SLFN12. The source says:
FIG. 22 is a plot showing sensitization of a DNMDP-resistant cell line by expression of SLFN12 or expression of SFLN12 and PDE3A.
Adding PDE3A expression led to further sensitization.

Assay [2] concerns NCI-H2122 cells. As to the kind of experiment: Compound sensitivity testing in cell lines (48 h viability). The assay is classed as cell-based. The note with it: Homo sapiens; NCI-H2122, 48 hours.
Assay [3] concerns NCI-H1563 cells. The description is as above. Format: cell-based. The note with it: Homo sapiens; NCI-H1563, 48 hours.
Assay [4] relates to PC3 cells. Described as above. The assay is classed as cell-based. The note with it: Homo sapiens, PC-3; PC3, 48 hours.
Assay [5] concerns the target 234 kinases. Description: Screening of 234 kinases. Format: biochemical. The note with it: 10 μM.
Assay [6] concerns A549 cells. As to the kind of experiment: Compound library screening and dose-response retest, cell viability (ATP content, CellTiter-Glo). The assay is classed as cell-based. The note with it: A549, 48 hours. The protocol:
(§1) To identify anti-cancer compounds with cell-selective cytotoxic activity, an unbiased chemical screen was performed in two lung adenocarcinoma cell lines, A549 and NCI-H1734, both of which harbor oncogenic KRAS mutations and truncating STK11 mutations, and which were TP53 wild type and mutant (R273L), respectively. 1,924 compounds were screened from the Molecular Libraries Small-Molecule Repository validation set in the A549 and NCI-H1734 cell lines at a single concentration of 10 μM in 384-well format in duplicate. As a proxy for cellular viability, ATP content was measured after 48 hours of compound treatment.
(§2) 1500 NCI-H1734 or 1000 A549 cells were plated in a 384-well plate in 40 μl of RPMI supplemented with 10% Fetal Bovine Serum and 1% Pen/Strep. 24 hours after plating, a compound-library of 1924 small molecules was added at a concentration of 10 μM. Staurosporine was used a positive control for cytotoxicity at a concentration of 10 μM, and DMSO was used a negative control at a concentration of 1%. All compounds were incubated for 48 hours with indicated small molecules. […] Cell viability was assessed by adding 40 μl of a 25% CELLTITERGLO® (Promega) in PBS with a THERMO COMBI™ or multichannel-pipette and incubated for 10 minutes. The luminescence signal was read using a Perkin-Elmer EnVision. Viability percentage was calculated by normalizing to DMSO controls.

In assay [7] the test system is NCI-H1734 cells. The assay is described as above. The assay is classed as cell-based. The note with it: NCI-H1734, 48 hours. The protocol: as §1, §2

By EC50 is commonly meant the concentration at which the effect is half-maximal. On to `CCN(CC)c1ccc(C2=NNC(=O)CC2C)cc1[N+](=O)[O-]` (stereo not shown) [DNMDP, 6-(4-(diethylamino)-3-nitrophenyl)-5-methyl-4,5-dihydropyridazin-3(2H)-one], for which the “sensitivity of A549 cells upon expression of SLFN12” value in assay [1] is recorded as “sufficient to confer DNMDP sensitivity”. The EC50 in assay [2] was 10 to 100 nM; in assay [3], 10 to 100 nM; in assay [4], above 1000 nM. The kinase inhibition result in assay [5] is on record as “no kinase inhibition”. The “effect on cell viability” value in assay [6] is on record as “did not affect cell viability”. In assay [7], the “toxicity in dose-response analysis” value is listed as “specifically toxic”.
